According to article PMC3192245 (Proteins, 2011):

Biological target: AtOPR3 (Arabidopsis thaliana, UniProt Q9FUP0)
Test: X-ray crystal structure, […] Å
Format: binding
Conditions: ternary complex with 8-iso PGA1; one FMN per monomer

Chain of AtOPR3 (Q9FUP0 whole entry): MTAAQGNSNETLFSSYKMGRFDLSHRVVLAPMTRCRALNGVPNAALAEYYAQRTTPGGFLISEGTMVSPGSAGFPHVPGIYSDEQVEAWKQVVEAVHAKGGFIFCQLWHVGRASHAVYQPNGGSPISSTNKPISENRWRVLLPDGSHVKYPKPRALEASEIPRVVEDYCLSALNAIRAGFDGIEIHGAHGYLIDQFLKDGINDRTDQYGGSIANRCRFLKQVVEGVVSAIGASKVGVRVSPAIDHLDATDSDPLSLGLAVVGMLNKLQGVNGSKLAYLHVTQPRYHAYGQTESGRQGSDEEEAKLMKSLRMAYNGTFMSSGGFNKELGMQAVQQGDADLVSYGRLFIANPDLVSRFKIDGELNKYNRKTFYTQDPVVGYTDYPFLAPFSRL

`Cc1cc2nc3c(=O)[nH]c(=O)nc-3n(C[C@H](O)[C@H](O)[C@H](O)COP(=O)(O)O)c2cc1C` [FMN] was tested, and the “X-ray crystal structure, 2.6 Å” value was “each AtOPR3 monomer contains one FMN and one 8-iso PGA1 molecule”.
